Data reported in ChEMBL document CHEMBL1201862, “PubChem BioAssay data set” (2004).
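Following 48 hours of exposure in 96-well plates, responses at five concentrations were used to interpolate endpoints linearly. Abbreviation: GI50, concentration required for 50% inhibition of growth.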 Calls of active or inactive are those of the source. Rule as the data show it: active = GI50 up to about 1.1 µM and inactive = higher.

Experiments:
Assay in all cases: inhibition of tumour cell growth, NCI panel, 48 h
786-0 = test system: 786-0
A498 = test system: A498
A549 = test system: A549
ACHN = test system: ACHN
CAKI-1 = test system: CAKI-1
CCRF-CEM = test system: CCRF-CEM
COLO 205 = test system: COLO 205
DLD-1 = test system: DLD-1
DMS-114 = test system: DMS-114
DMS-273 = test system: DMS-273
HCT-116 = test system: HCT-116
HL-60 = test system: HL-60
HOP-18 = test system: HOP-18
HOP-62 = test system: HOP-62
HOP-92 = test system: HOP-92
HT-29 = test system: HT-29
IGROV-1 = test system: IGROV-1
K562 = test system: K562
KM-20L2 = test system: KM-20L2
KM12 = test system: KM12
LOX IMVI = test system: LOX IMVI
LXFL 529 = test system: LXFL 529
M14 = test system: M14
M19-MEL = test system: M19-MEL
MOLT-4 = test system: MOLT-4
Malme-3M = test system: Malme-3M
NCI-H226 = test system: NCI-H226
NCI-H23 = test system: NCI-H23
NCI-H460 = test system: NCI-H460
NCI-H522 = test system: NCI-H522
OVCAR-3 = test system: OVCAR-3
OVCAR-4 = test system: OVCAR-4
OVCAR-5 = test system: OVCAR-5
OVCAR-8 = test system: OVCAR-8
RPMI-8226 = test system: RPMI-8226
RXF 393 = test system: RXF 393
SF-268 = test system: SF-268
SF-295 = test system: SF-295
SF-539 = test system: SF-539
SK-MEL-28 = test system: SK-MEL-28
SK-MEL-2 = test system: SK-MEL-2
SK-MEL-5 = test system: SK-MEL-5
SK-OV-3 = test system: SK-OV-3
SN12C = test system: SN12C
SNB-19 = test system: SNB-19
SNB-75 = test system: SNB-75
SNB-78 = test system: SNB-78
SR = test system: SR
SW-620 = test system: SW-620
TK-10 = test system: TK-10
U-251 = test system: U-251
UACC-257 = test system: UACC-257
UACC-62 = test system: UACC-62
UO-31 = test system: UO-31
XF498 = test system: XF498
EKVX = test system: EKVX
HCC 2998 = test system: HCC 2998
HCT-15 = test system: HCT-15
MCF7 = test system: MCF7
NCI/ADR-RES = test system: NCI/ADR-RES

Q: `c1ccc2c(c1)[Se]c1ccccc1[Se]2` was tested. Which GI50 (786-0) did it give?
A: Its GI50 is > 100 µM (inactive).

Q: What about the GI50 (A498) of the same compound?
A: Its GI50 is > 100 µM (inactive).

Q: What about the GI50 (A549) of the same compound?
A: Its GI50 is 53.6 µM (inactive).

Q: And the GI50 (ACHN)?
A: The GI50 was > 100 µM (inactive).

Q: And the GI50 (CAKI-1)?
A: The GI50 was 67.1 µM (inactive).

Q: What about the GI50 (CCRF-CEM) of the same compound?
A: The GI50 was 57.8 µM (inactive).

Q: What about the GI50 (COLO 205) of the same compound?
A: Its GI50 is > 100 µM (inactive).

Q: And the GI50 (DLD-1)?
A: The GI50 was 53.8 µM (inactive).

Q: What about the GI50 (DMS-114) of the same compound?
A: Its GI50 is 67 µM (inactive).

Q: What about the GI50 (DMS-273) of the same compound?
A: The GI50 was > 100 µM (inactive).

Q: And the GI50 (HCT-116)?
A: The GI50 was 28.1 µM (inactive).

Q: What about the GI50 (HL-60) of the same compound?
A: The GI50 was 27.1 µM (inactive).

Q: What about the GI50 (HOP-18) of the same compound?
A: Its GI50 is 4.92 µM (inactive).

Q: What about the GI50 (HOP-62) of the same compound?
A: Its GI50 is > 100 µM (inactive).

Q: What about the GI50 (HOP-92) of the same compound?
A: The GI50 was 25.8 µM (inactive).

Q: What about the GI50 (HT-29) of the same compound?
A: Its GI50 is > 100 µM (inactive).

Q: And the GI50 (IGROV-1)?
A: The GI50 was 47.6 µM (inactive).

Q: And the GI50 (K562)?
A: Its GI50 is > 100 µM (inactive).

Q: And the GI50 (KM-20L2)?
A: Its GI50 is > 100 µM (inactive).

Q: And the GI50 (KM12)?
A: Its GI50 is > 100 µM (inactive).

Q: What about the GI50 (LOX IMVI) of the same compound?
A: The GI50 was > 100 µM (inactive).

Q: And the GI50 (LXFL 529)?
A: Its GI50 is 61.4 µM (inactive).

Q: And the GI50 (M14)?
A: The GI50 was > 100 µM (inactive).

Q: What about the GI50 (M19-MEL) of the same compound?
A: Its GI50 is > 100 µM (inactive).

Q: What about the GI50 (MOLT-4) of the same compound?
A: Its GI50 is 77.6 µM (inactive).

Q: What about the GI50 (Malme-3M) of the same compound?
A: Its GI50 is > 100 µM (inactive).

Q: What about the GI50 (NCI-H226) of the same compound?
A: The GI50 was 44.1 µM (inactive).

Q: What about the GI50 (NCI-H23) of the same compound?
A: Its GI50 is 63.5 µM (inactive).

Q: What about the GI50 (NCI-H460) of the same compound?
A: Its GI50 is 38.3 µM (inactive).

Q: What about the GI50 (NCI-H522) of the same compound?
A: Its GI50 is > 100 µM (inactive).

Q: What about the GI50 (OVCAR-3) of the same compound?
A: The GI50 was > 100 µM (inactive).

Q: What about the GI50 (OVCAR-4) of the same compound?
A: The GI50 was 23.4 µM (inactive).

Q: What about the GI50 (OVCAR-5) of the same compound?
A: The GI50 was > 100 µM (inactive).

Q: What about the GI50 (OVCAR-8) of the same compound?
A: Its GI50 is > 100 µM (inactive).

Q: And the GI50 (RPMI-8226)?
A: The GI50 was > 100 µM (inactive).

Q: What about the GI50 (RXF 393) of the same compound?
A: Its GI50 is 61.8 µM (inactive).

Q: What about the GI50 (SF-268) of the same compound?
A: Its GI50 is > 100 µM (inactive).

Q: And the GI50 (SF-295)?
A: Its GI50 is 25.6 µM (inactive).

Q: What about the GI50 (SF-539) of the same compound?
A: Its GI50 is 44.3 µM (inactive).

Q: And the GI50 (SK-MEL-28)?
A: Its GI50 is > 100 µM (inactive).

Q: And the GI50 (SK-MEL-2)?
A: Its GI50 is > 100 µM (inactive).

Q: What about the GI50 (SK-MEL-5) of the same compound?
A: The GI50 was > 100 µM (inactive).

Q: What about the GI50 (SK-OV-3) of the same compound?
A: Its GI50 is > 100 µM (inactive).

Q: And the GI50 (SN12C)?
A: Its GI50 is > 100 µM (inactive).

Q: What about the GI50 (SNB-19) of the same compound?
A: The GI50 was > 100 µM (inactive).

Q: What about the GI50 (SNB-75) of the same compound?
A: Its GI50 is 21.2 µM (inactive).

Q: And the GI50 (SNB-78)?
A: The GI50 was 30.5 µM (inactive).

Q: What about the GI50 (SR) of the same compound?
A: The GI50 was 85.3 µM (inactive).

Q: What about the GI50 (SW-620) of the same compound?
A: Its GI50 is > 100 µM (inactive).

Q: And the GI50 (TK-10)?
A: Its GI50 is 78.5 µM (inactive).

Q: What about the GI50 (U-251) of the same compound?
A: Its GI50 is 37.5 µM (inactive).

Q: And the GI50 (UACC-257)?
A: The GI50 was > 100 µM (inactive).

Q: And the GI50 (UACC-62)?
A: Its GI50 is > 100 µM (inactive).

Q: And the GI50 (UO-31)?
A: Its GI50 is 51.6 µM (inactive).

Q: And the GI50 (XF498)?
A: Its GI50 is > 100 µM (inactive).

Q: Which results are given for `CCOC(=O)CNC(=O)NC12CC3CC(CC(C3)C1)C2`?
A: GI50 (A498): 147 µM (inactive); GI50 (A549): 229 µM (inactive); GI50 (CAKI-1): 169 µM (inactive); GI50 (CCRF-CEM): 182 µM (inactive); GI50 (COLO 205): 137 µM (inactive); GI50 (DLD-1): 65.8 µM (inactive); GI50 (DMS-114): 179 µM (inactive); GI50 (DMS-273): 223 µM (inactive); GI50 (EKVX): 191 µM (inactive); GI50 (HCC 2998): 142 µM (inactive); GI50 (HCT-116): 156 µM (inactive); GI50 (HCT-15): 229 µM; GI50 (HL-60): 177 µM (inactive); GI50 (HOP-18): 161 µM (inactive); GI50 (HOP-62): 185 µM (inactive); GI50 (HOP-92): 22.1 µM (inactive); GI50 (HT-29): 366 µM (inactive); GI50 (IGROV-1): 240 µM (inactive); GI50 (K562): 226 µM (inactive); GI50 (KM-20L2): 237 µM (inactive); GI50 (KM12): 150 µM (inactive); GI50 (LOX IMVI): 237 µM (inactive); GI50 (M19-MEL): 111 µM (inactive); GI50 (MCF7): 115 µM (inactive); GI50 (MOLT-4): 180 µM (inactive); GI50 (Malme-3M): 133 µM (inactive); GI50 (NCI-H226): 203 µM (inactive); GI50 (NCI-H23): 182 µM (inactive); GI50 (NCI-H460): 136 µM (inactive); GI50 (NCI-H522): 142 µM (inactive); GI50 (NCI/ADR-RES): 305 µM (inactive); GI50 (OVCAR-3): 153 µM (inactive); GI50 (OVCAR-4): 294 µM (inactive); GI50 (OVCAR-5): 432 µM (inactive); GI50 (OVCAR-8): 490 µM (inactive); GI50 (RPMI-8226): 274 µM (inactive); GI50 (RXF 393): 80.9 µM (inactive); GI50 (SF-268): 284 µM (inactive); GI50 (SF-295): 322 µM (inactive); GI50 (SF-539): 203 µM (inactive); GI50 (SK-MEL-28): 179 µM (inactive); GI50 (SK-MEL-2): 141 µM (inactive); GI50 (SK-MEL-5): 131 µM (inactive); GI50 (SK-OV-3): > 418 µM (inactive); GI50 (SN12C): 219 µM (inactive); GI50 (SNB-19): 270 µM (inactive); GI50 (SNB-75): 110 µM (inactive); GI50 (SNB-78): 221 µM (inactive); GI50 (SW-620): 247 µM (inactive); GI50 (U-251): 269 µM (inactive); GI50 (UACC-257): 176 µM (inactive); GI50 (UACC-62): 125 µM (inactive); GI50 (UO-31): 171 µM (inactive); GI50 (XF498): 22.1 µM (inactive)
